Measurements published in the METLIN SMRT retention time set (Domingo-Almenara et al. 2019).

Assay: gradient 5% acetonitrile 3 min, to 50% in 2 min, to 85% in 15 min, held 3 min, 100 µL/min
Settings: column: Zorbax Extend-C18 2.1 x 50 mm; eluents: water / acetonitrile, 0.1% formic acid
Summary of the method: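 Retention times come from adduct peaks that were picked computationally and then checked by hand. The standards, pure and pooled in mixtures of ~100 molecules, were run on a Zorbax Extend-C18 column (2.1 × 50 mm, 1.8 μm) at 100 μL/min with water and acetonitrile, each with 0.1% formic acid. Detection was by quadrupole time-of-flight mass spectrometry in positive and negative ionization mode, with a dead volume of 40 μL and a dwell volume of 900 μL.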

Cc1ccc(S(=O)(=O)N2CCSCCSCCSCCSCC2)cc1
RP-LC retention time: 1160 s

O=C(Nc1cc(F)cc(F)c1)C1CCCN(c2ccnc(-c3ccc(F)cc3)n2)C1 (centres undefined)
RP-LC retention time: 761 s

CCOC(=O)[C@H]1[C@H]2C=C[C@]3(CN(c4ccccc4C)C(=O)[C@@H]13)O2
RP-LC retention time: 717 s

CCn1c(=O)n(CC)c2cc(S(=O)(=O)c3ccccc3)c(NC(=O)C3CC3)cc21
RP-LC retention time: 816 s

Cc1ccc(NS(=O)(=O)c2cccnc2Nc2ccc(Cl)cc2)cc1
RP-LC retention time: 1170 s

Cc1oc2ccn(Cc3ccccc3F)c(=O)c2c1C(=O)NCc1cccc(F)c1
RP-LC retention time: 726 s

CC(CCNC(=O)c1cc2c(-c3cccs3)nn(-c3ccccc3)c2n1C)N1CCCC1 (centres undefined)
RP-LC retention time: 726 s

O=C(NCc1ccccn1)C1CCN(c2cnn(Cc3ccccc3)c(=O)c2)CC1
RP-LC retention time: 615 s

CCN(CC)CCNC(C(=O)OCCC(C)C)c1ccccc1 (centres undefined)
RP-LC retention time: 817 s

CN(C)c1nn(CC(=O)Nc2ccc(S(C)(=O)=O)cc2)cc1-c1ccccc1
RP-LC retention time: 786 s

COc1ccc(-c2ccc(=O)n(Cc3nc(-c4ccccn4)no3)n2)cc1
RP-LC retention time: 780 s

Cc1cc(C)c2c(=O)n(Cc3nc(-c4ccccc4)oc3C)c(=O)n(C)c2n1
RP-LC retention time: 1160 s

CN(C)C(=O)c1ccc2c(c1)N(CC(=O)NC1CCCCCC1)C(=O)C1CCCCN21 (centres undefined)
RP-LC retention time: 801 s

CC(C)CCNCC(O)Cn1c2ccc(Br)cc2c2cc(Br)ccc21 (centres undefined)
RP-LC retention time: 906 s

CCc1ccc(NC(=O)Cn2cnc3nc(N4CCC(C(=O)NC5CC5)CC4)sc3c2=O)cc1
RP-LC retention time: 708 s

CCN1C(=O)c2cccnc2Sc2cc(NC(=O)c3cccs3)ccc21
RP-LC retention time: 796 s

COc1ccc(C2C(C(=O)O)c3ccccc3C(=O)N2C)cc1OC (centres undefined)
RP-LC retention time: 657 s

COc1ccc(NC(=O)N2CCCC(C)(C(=O)NCc3ccccc3)C2)c(OC)c1 (centres undefined)
RP-LC retention time: 846 s

CCCN1C(=O)COc2ccc(-c3csc(NC(=O)CCc4ccccc4)n3)cc21
RP-LC retention time: 1070 s

O=C(Cn1ncc2c(c1=O)N(CC1CC1)C(=O)CS2)Nc1cccc(C(F)(F)F)c1
RP-LC retention time: 869 s

O=S1(=O)N=CN(c2ccc(F)cc2)c2ncccc21
RP-LC retention time: 738 s

Cc1ccc(NC(=O)C2CCc3nc(N4CCCCC4)ncc3C2)cc1 (centres undefined)
RP-LC retention time: 822 s

CC(C)c1nncn1C1CCN(S(=O)(=O)c2ccccc2F)CC1
RP-LC retention time: 692 s

Cc1cc(S(=O)(=O)N2CCc3nc(-c4ccc(Cl)cc4)ncc3C2)ccc1F
RP-LC retention time: 1260 s

CCOc1cccc2cc(C(=O)Nc3ccc4c(c3)C(=O)N(C)C4=O)oc12
RP-LC retention time: 906 s

O=C(CN1CCN(Cc2ccc(F)cc2)C1=O)NCc1ccc(F)cc1Cl
RP-LC retention time: 844 s

COc1cccc(-c2cn3ccn(-c4ccc(F)c(Cl)c4)c(=O)c3n2)c1
RP-LC retention time: 859 s

O=C(Cn1nc2n(c1=O)CCCCC2)Nc1ccc(Cl)cc1
RP-LC retention time: 730 s

O=C(NCCCc1ccccc1)C1CCN(C(=O)N2CCOc3ccc(Cl)cc32)CC1
RP-LC retention time: 948 s

CC1CCN(S(=O)(=O)c2cccn(CC#N)c2=O)CC1
RP-LC retention time: 749 s

Fc1ccc(Cc2noc(-c3nc(-c4ccccc4)no3)n2)cc1
RP-LC retention time: 1160 s

COc1cc(NC(=O)C2CC(=O)N(CCc3c[nH]c4ccc(C)cc34)C2)cc(OC)c1OC (centres undefined)
RP-LC retention time: 753 s

COc1ccc(C2C(C(C)=O)=C(O)C(=O)N2CCCN2CCOCC2)c(OC)c1 (centres undefined)
RP-LC retention time: 554 s

Cc1cccn2cc(C(=O)NCc3cccc(F)c3)nc12
RP-LC retention time: 645 s

O=C(NC1CC1)C1CCN(c2nc3ncn(CC(=O)N4CCc5ccccc5C4)c(=O)c3s2)CC1
RP-LC retention time: 674 s

O=C(Nc1cccc(F)c1)N1CCCC1c1nc(-c2ccc(F)cc2F)no1 (centres undefined)
RP-LC retention time: 998 s

O=C(Nc1ccc(F)cc1)c1ccc(Br)s1
RP-LC retention time: 935 s

COc1ccc(-c2noc(C3CCCN3C(=O)Nc3ccc(Cl)cc3)n2)cc1 (centres undefined)
RP-LC retention time: 920 s

Cc1cccc(-n2nc3c(c2-n2cccc2)CN(C(=O)c2snnc2C)C3)c1
RP-LC retention time: 894 s

CCOc1ccc(-c2[nH]ncc2CNS(=O)(=O)Cc2ccccc2Cl)cc1
RP-LC retention time: 846 s

CCOc1cc(N)c(Cl)cc1C(=O)NCC1CN(Cc2ccc(F)cc2)CCO1 (centres undefined)
RP-LC retention time: 714 s

COc1ccc2c(c1)C1CC(C)(NC(=O)C1S(=O)(=O)c1ccc(C(C)C)cc1)O2 (centres undefined)
RP-LC retention time: 1010 s

CC(=O)Nc1cccc2c(C(=O)NC3CCCC3)ccnc12
RP-LC retention time: 719 s

CC1CCN(S(=O)(=O)c2ccc(-c3nnc(C(=O)NCc4cccs4)o3)cc2)CC1
RP-LC retention time: 910 s
